# Marks after values point to notes of the source that are not given here.
# Experiments:
# [1] = Plasma pharmacokinetics of TP-1 in the Phase III study, day 1 and day 8 (steady state); format: in vivo, human; details: patients receiving TP-1 twice daily
# Excerpt: This study consisted of four visits to the study site. After the initial screening visit (Visit 1), subjects who met all study selection criteria were required to undergo a single-blind placebo run-in period for 7-10 days. Following the completion of the run-in period, eligible subjects meeting the randomization criteria were enrolled and randomized to one of the four treatment arms. Subjects were dispensed medication as per the randomization list. Randomized subjects were required to undergo a 2 week (14 days) treatment period as per the protocol to assess the efficacy and safety of the assigned treatment. Subjects were instructed to record the symptom scores in a symptom assessment diary. They were also scheduled to have at least two blood samples for PK assessment during the treatment period.
# • Change from baseline in average AM and PM subject-reported 12-hour rTNSS (reflective TNSS) over the 14-day treatment period. Secondary Endpoints • Change from baseline in average AM and PM subject-reported 12-hour iTNSS (instantaneous TNSS) over the 14 day treatment period. • Change from baseline in average AM and PM subject-reported 12-hour rTOSS (reflective TOSS) over the 14-day treatment period. • Onset of action for each treatment are assessed by comparing the change from baseline in post-treatment iTNSS between each active treatment and placebo at defined time points (prior to first dose (pre-dose), 15 min, 30 min, 45 min, 60 min, 90 min, 120 min, 150 min, 180 min, 210 min, and 240 min) after the first study treatment for 4 hours. • Change from baseline in the overall Rhinoconjunctivitis Quality of Life questionnaire (RQLQ)—Standardized Activities (RQLQ(S)) score on Day 15 (Visit 4) for the Full Analysis Set (FAS). Pharmacokinetic Endpoints • Plasma PK: Maximum plasma concentration (Cmax), time to attain Cmax (Tmax), and area under the plasma concentration-time curve over the dosing interval (AUCtau) will be estimated for mometasone furoate and olopatadine on Day 1 and Day 8 based on the pharmacokinetic analysis set (PKAS). Tertiary Efficacy Endpoints Nasal Symptoms: • Change from baseline in AM subject-reported rTNSS over the 14-day treatment period. • Change from baseline in AM subject-reported iTNSS over the 14-day treatment period. • Change from baseline in PM subject-reported rTNSS over the 14-day treatment period. • Change from baseline in PM subject-reported iTNSS over the 14-day treatment period. • Change from baseline in subject-reported reflective individual nasal symptoms over the 14-day treatment period (AM, PM and average of AM and PM). • Change from baseline in subject-reported instantaneous individual nasal symptoms over the 14-day treatment period (AM, PM and average of AM and PM). • Change from baseline in average AM and PM subject-reported rTNSS and iTNSS for each day. • Change from baseline in AM subject-reported rTNSS and iTNSS for each day. • Change from baseline in PM subject-reported rTNSS and iTNSS for each day. […]
# [2] = test system: total cells and eosinophils in nasal lavage; test: Nasal lavage total cell count and eosinophils in ovalbumin induced rhinitis model; format: in vivo, guinea pigs; details: for Inhibition of total cell and eosinophils in nasal lavage (in words): MF 10 μg; for % inhibition of eosinophils / Percent inhibition of total cell count / Eosinophils × 10^5/ml nasal lavage / Total cell count × 10^5/ml nasal lavage: MF 10 μg per animal
# Experimental: Male Dunkin Hartley guinea pigs were actively sensitized with a subcutaneous injection of 1.5 mg of ovalbumin and 20 mg of aluminum hydroxide gel on days 0 and 7. Guinea pigs were sensitized intranasally with 2% ovalbumin from days 14-17. On day 28, the animals were challenged with 6% ovalbumin intranasally. Mometasone furoate 10 μg was given intranasally 24 hours and 1 hour prior to the final ovalbumin challenge. Olopatadine hydrochloride was given intranasally 1 hour before the final ovalbumin challenge. The dosing volume was 40 μl/animal. The saline control group and ovalbumin control group received vehicle (40 μl, 0.1% Tween 80 in distilled water). Nasal lavage was performed at 4 hours after challenge of animals with saline or ovalbumin on day 28. Animals were anesthetized with an overdose of urethane, the trachea was exposed and nasal lavage was performed using 2 mL pre-warmed normal saline. The collected nasal lavage was taken for total cell count using a hemocytometer. The nasal lavage was centrifuged, and the cell pellet resuspended in 15 μL guinea pig serum and used for preparation of smears. Slides were stained with Leishman's stain and a differential cell count of 100 cells based on standard morphology was performed manually. The total number of eosinophils in each nasal lavage sample was calculated using the formula: [formula] Percent inhibition of eosinophils was calculated using the following formula: The procedure in Example 1 was repeated except 120 μg of olopatadine hydrochloride (based on the equivalent weight of olopatadine free base) was used. The animal groups in Table 3 below were used during this experiment. Compound administration was performed as in Example 1, except the dosing volume was 60 μl/animal. The saline control group and ovalbumin control group received vehicle (60 μl, 0.1% Tween 80 in distilled water). In vivo evaluations were performed as in Example 1.
# [3] = Pharmacokinetics of mometasone furoate, single-dose three-period cross-over study, Example 13; format: in vivo, human; details: single dose nasal spray
# Experimental: The pharmacokinetics of mometasone furoate in a fixed dose combination of mometasone furoate and olopatadine hydrochloride nasal spray was evaluated in a clinical trial. The clinical trial was a randomized, single-center, single-dose, open-label, three-period, six-sequence, cross-over study to evaluate three treatments administered by nasal spray. The three treatments included a combination of mometasone furoate and olopatadine hydrochloride nasal spray, mometasone furoate nasal spray and Nasonex® nasal spray. […] The study consisted of a screening visit, 3 single-dose treatment periods with washout periods of 7 to 14 days between dosing in each treatment period, an early withdrawal visit if applicable, and a follow-up telephone call (or visit) 1 to 7 days after completing the third treatment period. A total of 30 subjects were randomized to 1 of 6 treatment sequences and received at least 1 dose of study drug. All 30 subjects were included in the safety analysis set and the pharmacokinetic subset. All but 2 subjects completed the study per protocol.
# sneezing response = test: Sneezing response in ovalbumin induced rhinitis model (whole body plethysmography); format: in vivo, guinea pigs; details: for Inhibition of sneezing response (in words) / Number of Sneeze (0-50 min): MF 10 μg; for Percent inhibition of sneeze: MF 10 μg per animal, vs ovalbumin control; for Number of Sneeze (0-50 min): intranasal, ovalbumin challenged
# Experimental: Male Dunkin Hartley guinea pigs were actively sensitized with a subcutaneous injection of 1.5 mg of ovalbumin and 20 mg of aluminum hydroxide gel on days 0 and 7. Guinea pigs were sensitized intranasally with 2% ovalbumin from days 14-17. On day 28, the animals were challenged with 6% ovalbumin intranasally. Mometasone furoate 10 μg was given intranasally 24 hours and 1 hour prior to the final ovalbumin challenge. Olopatadine hydrochloride was given intranasally 1 hour before the final ovalbumin challenge. The dosing volume was 40 μl/animal. The saline control group and ovalbumin control group received vehicle (40 μl, 0.1% Tween 80 in distilled water). Sneezing response was determined by using whole body plethysmography (Buxco Research Systems, USA) for 50 minutes after final saline or ovalbumin challenge. The procedure in Example 1 was repeated except 120 μg of olopatadine hydrochloride (based on the equivalent weight of olopatadine free base) was used. The animal groups in Table 3 below were used during this experiment. Compound administration was performed as in Example 1, except the dosing volume was 60 μl/animal. The saline control group and ovalbumin control group received vehicle (60 μl, 0.1% Tween 80 in distilled water). In vivo evaluations were performed as in Example 1.
# [4] = Example 1, OH 50 μg, 4 hours after challenge
structure (smiles),measurement,setting,value
"C[C@@H]1C[C@H]2[C@@H]3CCC4=CC(=O)C=C[C@]4(C)[C@@]3(Cl)[C@@H](O)C[C@]2(C)[C@@]1(OC(=O)c1ccco1)C(=O)CCl [Mometasone Furoate, Mometasone furoate]","Mometasone furoate AUCtau, Geo Mean",[1]; Day 1,0.02616 ng·h/mL
same,"Mometasone furoate AUCtau, Mean",[1]; Day 1,0.02856 ng·h/mL
same,"Mometasone furoate AUCtau, Min-Max",[1]; Day 1,0.01211 to 0.07254 ng·h/mL
same,"Mometasone furoate Cmax, Geo Mean",[1]; Day 1,6.27 pg/mL
same,"Mometasone furoate Cmax, Mean",[1]; Day 1,6.78 pg/mL
same,"Mometasone furoate Cmax, Min-Max",[1]; Day 1,2.67 to 12.80 pg/mL
same,"Mometasone furoate Tmax, Median",[1]; Day 1,1.00 h
same,"Mometasone furoate AUCtau, Geo Mean",[1]; Day 8,0.05267 ng·h/mL
same,"Mometasone furoate AUCtau, Mean",[1]; Day 8,0.0584 ng·h/mL
same,"Mometasone furoate AUCtau, Min-Max",[1]; Day 8,0.02568 to 0.12405 ng·h/mL
same,"Mometasone furoate Cmax, Geo Mean",[1]; Day 8,9.17 pg/mL
same,"Mometasone furoate Cmax, Mean",[1]; Day 8,9.92 pg/mL
same,"Mometasone furoate Cmax, Min-Max",[1]; Day 8,3.58 to 16.10 pg/mL
same,"Mometasone furoate Tmax, Median",[1]; Day 8,1.00 h
same,Inhibition of total cell and eosinophils in nasal lavage (in words),"[2]; Example 1, OH 50 μg",significant inhibition
same,% inhibition of eosinophils,"[2]; Example 1, OH 50 μg",46%
same,Percent inhibition of total cell count,"[2]; Example 1, OH 50 μg",46%
same,Eosinophils × 10^5/ml nasal lavage,[2]; [4],2.00* × 10^5/ml
same,Total cell count × 10^5/ml nasal lavage,[2]; [4],3.90* × 10^5/ml
same,Inhibition of total cell and eosinophils in nasal lavage (in words),"[2]; Example 2, OH 120 μg",significant inhibition
same,% inhibition of eosinophils,"[2]; Example 2, OH 120 μg",20%
same,Eosinophils × 10^5/ml nasal lavage,"[2]; Example 2, OH 120 μg",2.69 × 10^5/ml
same,Percent inhibition of total cell count,"[2]; Example 2, OH 120 μg",30%
same,Total cell count × 10^5/ml nasal lavage,"[2]; Example 2, OH 120 μg",4.96 × 10^5/ml
same,Last time point until which quantifiable concentrations were observed,[3],72 h
same,Inhibition of sneezing response (in words),"sneezing response; Example 1, OH 50 μg",not effective
same,Percent inhibition of sneeze,"sneezing response; Example 1, OH 50 μg",15%
same,Number of Sneeze (0-50 min),"sneezing response; Example 1, per animal: OH 50 μg, combination 50 (OH) & 10 (MF)",18.83
same,Inhibition of sneezing response (in words),"sneezing response; Example 2, OH 120 μg",not effective
same,Percent inhibition of sneeze,"sneezing response; Example 2, OH 120 μg",−5%
same,Number of Sneeze (0-50 min),"sneezing response; Example 2, per animal: OH 120 μg, combination 120 (OH) & 10 (MF)",37.33
